Laboratory results: patent publication US12173350B2, “Chemiluminescent probes for imaging/detection of proteases” (RAMOT AT TEL-AVIV UNIVERSITY LTD., priority 2017, dated 2024)
Entries after “also recorded” stand apart in the source; their conditions may differ.

Legend:
cathepsin B [1] = target: T1, cathepsin B (Homo sapiens, UniProt P07858); assay: Chemiluminescence kinetic profile of probes with or without cathepsin B in activity buffer; assay type: biochemical; conditions: probe 1 μM, activity buffer pH 7.4, 10% DMSO, 2.5 units/mL cathepsin B, room temperature
Description: FIGS. 1A-1C show the chemiluminescence kinetic profiles of probes 1, 2, 3 and 4 [1 μM] in activity buffer (pH 7.4, 10% DMSO) in the presence of 2.5 units/mL cathepsin B at room temperature (1A; the inset focuses on the kinetic profile of probe 1); the total light emitted from each probe (1B); and the maximal signal yielded by each probe (1C).
(§1) The activity buffer contained: phosphate buffer 0.1M, 55 mM NaCl, 1 mM EDTA, 5 mM glutathione. All spectroscopic measurements were conducted in triplicates. The blank measurements for limit of detection calculation were repeated ten times. Limit of detection (LOD) was calculated as such: LOD=Meanblank+3×SD wherein SD—standard deviation.
Next, chemiluminescence emission of the probes, as a function of time was measured, with or without the addition of cathepsin B. The kinetic profiles of the chemiluminescence signals and their relative total-photon emissions are shown in FIGS. 1A and 1B, respectively. […] From then on, a pattern of increased chemiluminescent signal is seen, correlating to the addendum change and the improved probe solubility in aqueous media. Evaluating the probes for forthcoming cell imaging required us to also assess the maximal signal yielded by each probe, as it will culminate in higher sensitivity and resolution (FIG. 1C). The maximal signal of the different probes pales in comparison to that of probe 4, making it the leading choice for further investigation. No light emission was observed from the probes in the absence of cathepsin B.

cathepsin B [2] = target: T1, cathepsin B; assay: Sensitivity (limit of detection) of probes to detect cathepsin B, signal/noise vs enzyme concentration; assay type: biochemical; conditions: for limit of detection (LOD) of cathepsin B: LOD = mean blank + 3×SD
Description: as §1
The sensitivity of probe 4 to detect cathepsin B was measured and compared to that of a classic fluorescent probe (Z-Val-Cit-PABA-7HC) based on 7-hydroxy-coumarin To directly view the comparison between the two detection methods, signal/noise ratio using different cathepsin B concentrations was plotted against enzyme concentration using logarithmic scales (FIG. 4).

Raw 264.7 cells = assay: Chemiluminescence microscopy imaging of cathepsin B activity in Raw 264.7 cells; assay type: cell-based, murine; conditions: probe 5 μM, LV200 microscope, 20 min exposure
Description: (§2) Images were obtained following 30 min incubation with cell culture medium containing either probe 3 or probe 4 (5 μM), and were taken using the LV200 Olympus microscope using a 60× objective and 20 min exposure time. Chemiluminescence microscopy image and transmitted light image of […] cells incubated with probe 3 (a and b, respectively); Chemiluminescence microscopy image and transmitted light image of […] cells incubated with probe 4 (c and d, respectively); Chemiluminescence microscopy image and transmitted light image of CT26 cells incubated with probe 3 (e and f, respectively); Chemiluminescence microscopy image and transmitted light image of CT26 cells incubated with probe 4 (g and h, respectively); Chemiluminescence microscopy image and transmitted light image of 3T3 cells incubated with probe 3 (i and j, respectively); Chemiluminescence microscopy image and transmitted light image of 3T3 cells incubated with probe 4 (k and l, respectively).
(§3) Chemiluminescence images were acquired using Olympus LV200 inverted microscope fitted with an EMCCD camera (Hamamatsu C9100-13). […] For visualization of chemiluminescence emission, images were recorded with 20 minutes exposure times. […]

CT26 tumor cells = assay: Chemiluminescence microscopy imaging of cathepsin B activity in CT26 tumor cells; assay type: cell-based; conditions: probe 5 μM, LV200 microscope, 20 min exposure
Description: as §2, §3

3T3 normal cells = assay: Chemiluminescence microscopy imaging of cathepsin B activity in 3T3 normal cells; assay type: cell-based, mouse; conditions: 3T3 cells, probe 5 μM, LV200 microscope, 20 min exposure
Description: as §2, §3

cathepsin B [3] = target: T1, cathepsin B; assay: HPLC analysis of the enzymatic degradation of the probe by cathepsin B; assay type: biochemical; conditions: probe 10 μM, activity buffer pH 7.4, 10% DMSO, 2.5 U/mL cathepsin B
From the text: To confirm the connection between the enzymatic degradation and chemiluminescent signal of the probes, HPLC was used to follow the enzymatic degradation of probe 4.

limit of detection (LOD) of cathepsin B (cathepsin B [2]; fluorescence) [U/mL] | SMILES | chemiluminescence emission (signal) upon addition of cathepsin B (cathepsin B [1]) | chemiluminescence signal in cell imaging (Raw 264.7 cells) | chemiluminescence signal in cell imaging (CT26 tumor cells) | chemiluminescence signal in cell imaging (3T3 normal cells) | enzymatic degradation followed by HPLC (cathepsin B [3]) | limit of detection (LOD) of cathepsin B (cathepsin B [2]; chemiluminescence) [μU/mL] | superior sensitivity vs. fluorescent probe Z-Val-Cit-PABA-7HC (cathepsin B [2]; ratio of LOD values)
 | COC(=O)/C=C/c1ccc(C2(OC)OOC23C2CC4CC(C2)CC3C4)c(Cl)c1OCc1ccc(NC(=O)C(CCCNC(N)=O)NC(=O)C(NC(=O)OCc2ccccc2)C(C)C)cc1 (centres unmarked) [Probe 2] | distinct increase in the chemiluminescent signal |  |  |  |  |  | 
1.25 | CC(C)C(NC(=O)OCc1ccccc1)C(=O)NC(CCCNC(N)=O)C(=O)Nc1ccc(COc2ccc3ccc(=O)oc3c2)cc1 (stereo not drawn) [Z-Val-Cit-PABA-7HC, reference compound] |  |  |  |  |  |  | 
 | COCCOCCOCCOCCOCCOCCOCCOCCOCCOCCOCCOCCOCCOCCOCCOCCOCCOC(=O)NC(C(=O)NC(CCCNC(N)=O)C(=O)Nc1ccc(COc2c(/C=C/C(=O)OC)ccc(C3(OC)OOC34C3CC5CC(C3)CC4C5)c2Cl)cc1)C(C)C (centres unmarked) [Probe 3] | distinct increase in the chemiluminescent signal; also recorded: highest light emission | no chemiluminescence signal | no chemiluminescence signal | no chemiluminescence signal |  |  | 
 | COC1(c2cccc(OCc3ccc(NC(=O)C(CCCNC(N)=O)NC(=O)C(NC(=O)OCc4ccccc4)C(C)C)cc3)c2Cl)OOC12C1CC3CC(C1)CC2C3 (centres unmarked) [Probe 1] | extremely weak emission |  |  |  |  |  | 
 | COC(=O)/C=C/c1ccc(C2(OC)OOC23C2CC4CC(C2)CC3C4)c(Cl)c1OCc1ccc(NC(=O)C(CCCNC(N)=O)NC(=O)C(NC(=O)CCCCCN2C(=O)CC(SC[C@@H](N)C(=O)NCC(=O)N[C@H](CCCCN)C(=O)N[C@H](CCCNC(=N)N)C(=O)N[C@H](CCCCN)C(=O)O)C2=O)C(C)C)cc1 (some centres unmarked) [Probe 4] | distinct increase in the chemiluminescent signal; also recorded: highest light emission | imaged via the chemiluminescence signal | imaged via the chemiluminescence signal | no chemiluminescence signal was observed | rapid enzymatic disassembly | 76.29 | more than 16,000 fold
